According to US20160317473A1, “METHODS OF TREATING OR PREVENTING BRAIN DAMAGE DUE TO HYPOXIC-ISCHEMIA” (EMORY UNIVERSITY, priority 2014, published 2016):
Entries after “also recorded” stand apart in the source; their conditions may differ.

Columns and labels:
[1] = test system: LPS/HI-injured P7 rat pups; experiment: LPS-sensitized HI (LPS/HI) brain injury model in P7 rats; type: in vivo
Procedure: To test whether intrauterine infection accelerates the development of TH17 lymphocytes, the expression of IL-23 receptor (IL-23R) mRNA, a marker of TH17 cells, was compared in aliquots of cord blood mononuclear cells isolated from late preterm neonates (32-36 gestational weeks) with and without histological chorioamnionitis. […] A well-characterized LPS-sensitized HI brain injury model in P7 rats was used to compare the effects of low-dose LPS (0.3 mg/kg, IP), HI, and combined LPS/HI on the expression of IL-23R mRNA in the peripheral blood mononuclear cells.
The effects of FTY720 administration (1 μg/g, IP) after LPS/HI insult in P7 rat pups were examined.
(§1) Flow cytometry we used to compare the percentage of CD4+ IL-17A+T-cells at 24 h after LPS, HI (90 min), or LPS+80 min HI brain injury. A longer duration of pure-HI insult was chosen because 80-min HI produced milder brain damage and little neuroinflammation. The TH17/IL-17 activity was compared under pure-HI (90 min) and LPS/HI (80 min) insults that produce similar levels of brain injury. […] The dual LPS/HI insult led to a significant increase to 21% of CD4+ IL-17A+ T-cells, which was reduced to 12% by FTY720 treatment (FIG. 3A).
(§2) Whether (p)FTY720 exerts direct neuroprotection was investigated. The effects of FTY720 on pure-HI (90 min) and LPS-sensitized HI insult (80 min) were compared reasoning that FTY720 should oppose both insults if its benefits are derived primarily from neuronal protection. Of note, because 80 min pure-HI insult caused little brain damage, a longer duration of pure-HI (90 min) we used in this experiment.
Magnetic resonance imaging (MRI) and behavioral testing were used to assess both acute and long-term effects of FTY720 treatment in LPS/HI injury. […] Two weeks later, the TBSS-identified at-risk gray and white matter became atrophic or distorted in saline-treated rat pups.

pure-HI injured rat pups = experiment: pure-HI (90 min) brain injury in rat pups; type: in vivo
Procedure: as §1, §2

[2] = test system: microglial activation in P7 rats; experiment: intracerebroventricular (ICV) injection of LPS in P7 rats, model of direct microglial activation; type: in vivo, rat; settings: FTY720 1 μg/g IP; LPS 2 μg ICV
Procedure: (§3) Experiments herein indicate FTY720 primarily blocks brain influx of leukocytes to prevent LPS/HI-induced neuroinflammation. […] To distinguish between these two scenarios, the effects of FTY720 was tested on the MCP1 induction following cerebral ventricle-injection of LPS, a paradigm of direct microglial activation. […] Intracerebroventricular (ICV) injection of LPS was performed in bitransgenic CX3CR1-GFP; CCR2-RFP mice, in which the microglia and circulating monocytes are marked by the green and red fluorescence protein, respectively. In unchallenged mice, the brains were largely devoid of monocytes and the microglial processes were excluded from the hippocampal pyramidal cell layer.

[3] = test system: microglia and monocytes in CX3CR1-GFP; CCR2-RFP mice; experiment: ICV injection of LPS in P10 CX3CR1-GFP; CCR2-RFP mice; type: in vivo; settings: 24 h after ICV LPS 1 μg; FTY720 1 μg/g
Procedure: In untouched mice, few GFP+ microglial processes extended into the pyramidal cell layer in the hippocampal (CA), and almost no RFP+ monocytes were detected in the brain.
as §3

SM826 microglial cells = experiment: LPS-induced activation of immortalized microglia SM826 cells; type: cell-based
From the text: These in-vivo and in-vitro results argued against direct inhibition of microglia by FTY720, which prompted us to examine the expression of S1P receptor isoforms in neonatal rat microglia. […] Thus, the effects of pFTY720 and S1P on LPS-induced expression of IL-23 (a key factor for TH17 cell differentiation), TNFα (Tumor Necrosis Factor-alpha), and iNOS mRNA were compared. […] Finally, the effects of S1P and Tat-NBD, an anti-NFKB peptide, were compared on the intracellular signaling responses to LPS in immortalized microglial cells.

LPS/HI-injured P10 mice = experiment: LPS/HI injury in P10 mice; type: in vivo; settings: two doses of 25 mg/kg, 16 h pre- & 1 h post-LPS/HI
Procedure: An experiment was performed to test the effects of SR1001, a small-molecule inhibitor of RORc, in LPS/HI injury in P10 mice.

S1PR2 = S1PR2 (Homo sapiens, UniProt O95136); settings: Mandala et al., 2002; cited from earlier work
Chain of S1PR2 (O95136 whole entry, species assumed): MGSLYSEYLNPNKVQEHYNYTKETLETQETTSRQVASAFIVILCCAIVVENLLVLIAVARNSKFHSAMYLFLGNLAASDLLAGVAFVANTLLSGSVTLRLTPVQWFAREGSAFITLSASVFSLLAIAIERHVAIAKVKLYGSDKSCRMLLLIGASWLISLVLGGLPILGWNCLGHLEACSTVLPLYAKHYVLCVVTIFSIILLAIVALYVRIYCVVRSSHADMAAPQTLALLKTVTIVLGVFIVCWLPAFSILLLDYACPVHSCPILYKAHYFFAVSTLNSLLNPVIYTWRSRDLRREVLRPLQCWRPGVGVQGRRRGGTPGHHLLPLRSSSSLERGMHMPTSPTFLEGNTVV

For CCCCCCCCc1ccc(CCC(N)(CO)CO)cc1 [FTY720, 2-amino-2-[2-(4-octylphenyl)ethyl]propane-1,3-diol], which “LPS/HI-induced MCP1 expression in the brain (ELISA)” value ([1]; 18-24 h following LPS/HI) is on record?
The value was “markedly reduced; also recorded: significant attenuation”.

What about the “LPS/HI-induced MCP1 in the plasma (ELISA)” value ([1]; 18-24 h following LPS/HI) of the same compound?
Its value is “failed to prevent”.

And the “post-LPS/HI induction of TSPO mRNA (marker for activated microglia)” value ([1]; 18-24 h following LPS/HI)?
The value was “markedly reduced”.

And the “ribbon-like CD43 immunoreactivity in the ipsilateral choroid plexus” value ([1]; 4 h after LPS/HI)?
The value was “preserved; also recorded: less pronounced”.

What about the “IL-23R mRNA levels in peripheral blood mononuclear cells (normalized to actin)” value ([1]; 4 h after LPS/HI, FTY720 1 μg/g IP) of the same compound?
Its value is “blocked the increase”.

And the “influx of CD43+ leukocytes in choroid plexus / ipsilateral subcortical white matter” value ([1]; 4 h post-LPS/HI)?
The value was “mitigated the influx; also recorded: absence of CD43+ cells; also recorded: not in the contralateral hemisphere or after the FTY720 treatment”.

What about the “nuclear NF-κB activity (EMSA, brain nuclear extract)” value ([1]; 4 h recovery from LPS/HI) of the same compound?
Its value is “greatly reduced; also recorded: prevented the high-order DNA-protein complex”.

What about the “reduction/degradation of cytoplasmic IκBα in the ipsilateral hemisphere” value ([1]; 4 h recovery from LPS/HI) of the same compound?
Its value is “greatly reduced; also recorded: averted”.

And the “BBB permeability (NaF fluorescence / extravasation)” value ([1]; 24 h after LPS/HI)?
The value was “markedly attenuated; also recorded: significantly reduced”.

And the “MMP9 induction/activity in ipsilateral hemisphere (zymogram)” value ([1]; 24 h after LPS/HI)?
The value was “diminished; also recorded: absence of MMP9 induction”.

What about the “ADC (apparent diffusion coefficient) signals in the cerebral cortex (MRI)” value ([1]; 24 h after LPS/HI, vs saline) of the same compound?
The value was “mitigated; also recorded: significant preservation”.

What about the “increase of brain MCP1 protein (cytokine array)” value ([1]; 24 h after LPS/HI, 9.7-fold without treatment) of the same compound?
The value was 3 fold.

What about the “brain cytoarchitectural distinctions in the ipsilateral hemisphere (MEMRI)” value ([1]; 24 h post-LPS/HI) of the same compound?
Its value is “preserved”.

What about the “increased sodium concentration in the ipsilateral hemisphere (sodium MRI)” value ([1]; 24 h recovery) of the same compound?
Its value is “mitigated”.

What about the “CD43+ leukocytes in the cortical gray matter” value ([1]; 24 h recovery after LPS/HI) of the same compound?
The value was “absent”.

What about the “accumulation of CD43+ leukocytes in the leptomeningeal space” value ([1]; 24 h recovery after LPS/HI) of the same compound?
Its value is “prevented the accumulation”.

What about the “latency to fall on rotarods” value ([1]; 24 days of age after LPS/HI) of the same compound?
Its value is “near-normal”.

What about the brain atrophy ([1]; LPS/HI injury) of the same compound?
The brain atrophy was “dose-dependent reduction”.

And the “LPS/HI-induced brain Gata3 mRNA” value ([1]; RT-PCR)?
The value was “not”.

And the “LPS/HI-induced brain IL-13 mRNA” value ([1]; RT-PCR)?
Its value is “not”.

What about the “LPS/HI-induced brain IL-17A mRNA” value ([1]; RT-PCR) of the same compound?
The value was “significantly decreased”.

And the “LPS/HI-induced brain IL-23 receptor mRNA” value ([1]; RT-PCR)?
Its value is “significantly decreased”.

And the “LPS/HI-induced brain RORc mRNA” value ([1]; RT-PCR)?
Its value is “significantly decreased”.

And the “LPS/HI-induced brain Tbx21/T-bet mRNA” value ([1]; RT-PCR)?
Its value is “significantly attenuated; also recorded: significantly decreased”.

What about the “gain in body weight” value ([1]; by 24 days of age after LPS/HI) of the same compound?
Its value is “near-normal gain”.

What about the “impairment of neonatal development” value ([1]; rat, in vivo) of the same compound?
The value was “does not impair neonatal development”.

What about the “LPS/HI-induced tissue loss salvaged in the hippocampus and the cerebral cortex” value ([1]; treatment started within 30 min after injury) of the same compound?
The value was over 90%.

And the “HI-induced MMP9 activation in ipsilateral cortical hemisphere (zymogram)” value (pure-HI injured rat pups; 24 h recovery, pure-HI)?
The value was “failed to prevent”.

And the “brain atrophy / injury after pure-HI” value (pure-HI injured rat pups; pure-HI 90 min, acute FTY720 treatment)?
The value was “failed to prevent; also recorded: ineffective”.

What about the “worsening of pure-HI brain injury” value (pure-HI injured rat pups; rat, in vivo) of the same compound?
The value was “does not impair neonatal development or worsen pure-HI brain injury”.

What about the “induction of MCP1 after ICV injection of LPS” value [2] of the same compound?
The value was “unable to prevent”.

What about the “microglial processes in hippocampal pyramidal cell layer and monocytes in the brain” value [3] of the same compound?
The value was “showed intrusion of hypertrophic microglia processes in the hippocampal pyramidal cell layer and a massive influx of monocytes; also recorded: hypertrophic microglial processes extended into the pyramidal cell layer and a large number of monocytes were found in the brain”.

For CCCCCCCCCCCCC/C=C/[C@@H](O)[C@@H](N)COP(=O)(O)O [S1P, sphingosine-1-phosphate], which “LPS-induced IL-23 mRNA” value (SM826 microglial cells) is on record?
The value was “neither phospho-FTY720 nor sphingosine-1-phosphate (S1P) prevented”.

What about the “LPS-induced IκBα degradation in the cytosol (immunoblot)” value (SM826 microglial cells; 5, 20 μM, LPS 5 ng/ml, 30 min) of the same compound?
Its value is “no opposing effects; also recorded: lacked this effect”.

And the “LPS-induced nuclear accumulation of NFκB/RelA (immunoblot)” value (SM826 microglial cells; 5, 20 μM, LPS 5 ng/ml, 30 min)?
Its value is “no opposing effects; also recorded: lacked this effect”.

What about the “S1PR1 mRNA” value (SM826 microglial cells; negative feedback of the signaling pathway) of the same compound?
Its value is “dose-dependent reduction”.

What about the “microglial activation: LPS-induced expression of IL-23, TNFα and iNOS mRNA” value (SM826 microglial cells; up to 10 μM) of the same compound?
Its value is “neither pFTY720 nor S1P (up to 10 μM) suppressed”.

With CC(=O)Nc1nc(C)c(S(=O)(=O)Nc2ccc(C(O)(C(F)(F)F)C(F)(F)F)cc2)s1 [SR1001, N-(5-(N-(4-(1,1,1,3,3,3-hexafluoro-2-hydroxypropan-2-yl)phenyl)sulphamoyl)-4-methylthiazol-2-yl)acetamide] as the compound, how does the “brain atrophy (tissue loss)” value (LPS/HI-injured P10 mice) read?
Its value is “significantly reduced”.

And the “induction of TH17 cells” value (LPS/HI-injured P10 mice)?
Its value is “significantly reduced”.

What about the “microglial activation/TSPO marker” value (LPS/HI-injured P10 mice) of the same compound?
The value was “significantly reduced”.

For CCCCCCCCc1ccc(CCC(N)(CO)COP(=O)(O)O)cc1 (centres unmarked) [phospho-FTY720], which “LPS-induced IL-23 mRNA” value (SM826 microglial cells) is on record?
Its value is “neither phospho-FTY720 nor sphingosine-1-phosphate (S1P) prevented”.

And the “LPS-induced COX2 expression” value (SM826 microglial cells; 2-10 μM, LPS 5 ng/ml)?
The value was “failed to prevent”.

What about the “LPS-induced iNOS expression” value (SM826 microglial cells; 2-10 μM, LPS 5 ng/ml) of the same compound?
The value was “failed to prevent”.

What about the “microglial activation: LPS-induced expression of IL-23, TNFα and iNOS mRNA” value (SM826 microglial cells; up to 10 μM) of the same compound?
The value was “neither pFTY720 nor S1P (up to 10 μM) suppressed”.

And the “LPS-mediated induction of IL-1β” value (SM826 microglial cells; up to 10 μM, LPS 5 ng/ml)?
The value was “failed to attenuate”.

What about the “LPS-mediated induction of IL-6” value (SM826 microglial cells; up to 10 μM, LPS 5 ng/ml) of the same compound?
The value was “failed to attenuate”.

What about the “binding affinity to the S1PR2 isoform” value (S1PR2) of the same compound?
The value was “lacks binding affinity”.
